Data taken from ChEMBL document CHEMBL1275513, “R chi-01, a new family of oxazolidinones that overcome ribosome-based linezolid resistance” (Antimicrob Agents Chemother, 2008).
≈ marks a conversion by molar mass, not a printed value.

Key:
Staphylococcus aureus [1] = test: Antimicrobial activity against Staphylococcus aureus ATCC 29213; assay type: functional
Bacterial 70S ribosome [2] = test: Displacement of [3H]chloramphenicol from 70S ribosomal complex in Staphylococcus aureus ATCC 29213 by competitive binding assay
Staphylococcus aureus [3] = test: Antimicrobial activity against linezolid-,erythromycin-resistant Staphylococcus aureus A7820 with G2576U mutation at 23s rRNA; assay type: functional
Enterococcus faecalis [4] = test: Antimicrobial activity against Enterococcus faecalis ATCC 29212; assay type: functional
[5] = Inhibition of 50S ribosomal subunit purified from Staphylococcus aureus ATCC 29213 assessed as inhibition of translation using in vitro transcribed mRNA encoding firefly luciferase
Enterococcus faecium = test: Antimicrobial activity against linezolid-resistant Enterococcus faecium A6349 expressing VanA gene; assay type: functional
[6] = Selectivity ratio of IC50 for […] to IC50 for Staphylococcus aureus ATCC 29213 50S ribosomal subunit
Enterococcus faecalis [7] = test: Antimicrobial activity against linezolid-resistant Enterococcus faecalis P5; assay type: functional
[8] = Inhibition of 50S ribosomal subunit purified from linezolid-,erythromycin-resistant Staphylococcus aureus A7820 with G2576U mutation in 23s rRNA assessed as inhibition of translation using in vitro transcribed mRNA encoding firefly luciferase
Bacterial 70S ribosome [9] = test: Displacement of [3H]puromycin from 70S ribosomal complex in Staphylococcus aureus ATCC 29213 by competitive binding assay

Row | SMILES | MIC (Staphylococcus aureus [1]) [mg/L] | IC50 (Bacterial 70S ribosome [2]) [µM] | MIC (Staphylococcus aureus [3]) [mg/L] | MIC (Enterococcus faecalis [4]) [mg/L] | IC50 [5] [µM] | MIC (Enterococcus faecium) [mg/L] | ratio [6] | MIC (Enterococcus faecalis [7]) [mg/L] | IC50 [8] [µM] | IC50 (Bacterial 70S ribosome [9]) [µM]
1 | CC(=O)NC[C@H]1CN(c2ccc(-c3ccc(CN)cc3)c(F)c2)C(=O)O1 | 4 (≈ 11.2 µM) | 58 | 8 (≈ 22.4 µM) | 0.5 (≈ 1.4 µM) | ≤ 0.02 | 1 (≈ 2.8 µM) | > 100 | 8 (≈ 22.4 µM) | – | –
2 | CC(=O)NC[C@H]1CN(c2ccc(-c3ccc(CNCC(N)=O)cc3)c(F)c2)C(=O)O1 | 4 (≈ 9.65 µM) | – | 8 (≈ 19.3 µM) | 0.5 (≈ 1.21 µM) | ≤ 0.02 | 1 (≈ 2.41 µM) | > 50 | 8 (≈ 19.3 µM) | – | –
3 | CC(=O)NC[C@H]1CN(c2ccc(-c3ccc(CNC(=N)N)cc3)c(F)c2)C(=O)O1 | 2 (≈ 5.01 µM) | 50 | 8 (≈ 20 µM) | 2 (≈ 5.01 µM) | ≤ 0.02 | 2 (≈ 5.01 µM) | > 100 | 8 (≈ 20 µM) | 0.08 | 8.7
4 | CC(=O)NC[C@H]1CN(c2ccc(-c3ccc(Cn4ncnn4)cc3)c(F)c2)C(=O)O1 | 0.5 (≈ 1.22 µM) | – | 1 (≈ 2.44 µM) | 0.25 (≈ 0.609 µM) | 0.06 | 0.5 (≈ 1.22 µM) | 23 | 1 (≈ 2.44 µM) | – | –
5 | CC(=O)NC[C@H]1CN(c2ccc(-c3ccc(CNCCCF)cc3)c(F)c2)C(=O)O1 | 1 (≈ 2.4 µM) | 45 | 8 (≈ 19.2 µM) | 0.5 (≈ 1.2 µM) | ≤ 0.02 | 1 (≈ 2.4 µM) | > 100 | 2 (≈ 4.79 µM) | 0.06 | –
6 | CC(=O)NC[C@H]1CN(c2ccc(-c3ccc(Cn4ccnn4)cc3)c(F)c2)C(=O)O1 | 0.5 (≈ 1.22 µM) | – | 1 (≈ 2.44 µM) | 0.5 (≈ 1.22 µM) | 0.13 | 1 (≈ 2.44 µM) | > 100 | 1 (≈ 2.44 µM) | 0.21 | –
7 | CC(=O)NC[C@H]1CN(c2ccc(-c3ccc(CNC(=O)/C=C/c4c(C)[nH]c(=O)[nH]c4=O)cc3)c(F)c2)C(=O)O1 | 0.25 (≈ 0.467 µM) | – | 8 (≈ 14.9 µM) | 1 (≈ 1.87 µM) | 0.09 | 1 (≈ 1.87 µM) | 17 | 16 (≈ 29.9 µM) | 0.03 | –
8 | O=C(N[C@H](CO)[C@H](O)c1ccc([N+](=O)[O-])cc1)C(Cl)Cl [CHLORAMPHENICOL] | 8 (≈ 24.8 µM) | 0.43 | 64 (≈ 198 µM) | 8 (≈ 24.8 µM) | 7.8 | 24 (≈ 74.3 µM) | 25 | 32 (≈ 99 µM) | 54 | –
9 | CS(=O)(=O)c1ccc([C@@H](O)[C@@H](CF)NC(=O)C(Cl)Cl)cc1 [FLORFENICOL] | 8 (≈ 22.3 µM) | 20 | 64 (≈ 179 µM) | 4 (≈ 11.2 µM) | 0.7 | 16 (≈ 44.7 µM) | > 100 | 16 (≈ 44.7 µM) | 16.4 | –
10 | CC(=O)NC[C@H]1CN(c2ccc(N3CCOCC3)c(F)c2)C(=O)O1 [LINEZOLID] | – | 1380 | 64 (≈ 190 µM) | – | 0.9 | 16 (≈ 47.4 µM) | > 100 | 32 (≈ 94.9 µM) | 8.4 | 920
11 | COc1ccc(C[C@H](N)C(=O)N[C@H]2[C@@H](O)[C@H](n3cnc4c(N(C)C)ncnc43)O[C@@H]2CO)cc1 [PUROMYCIN] | – | – | – | – | – | – | – | – | – | 0.9
12 | CC(=O)NC[C@H]1CN(c2ccc(-c3ccc(CNCc4cnn[nH]4)cc3)c(F)c2)C(=O)O1 [RADEZOLID] | 1 (≈ 2.28 µM) | – | 8 (≈ 18.2 µM) | 0.25 (≈ 0.57 µM) | 0.02 | 0.5 (≈ 1.14 µM) | > 100 | 1 (≈ 2.28 µM) | 0.03 | –
13 | CSC[S@@+]([O-])CC(CO)NC(=O)/C=C/c1c(C)[nH]c(=O)[nH]c1=O (some centres undefined) [SPARSOMYCIN] | – | – | – | – | ≤ 0.02 | – | 7 | – | – | –
